One data set deals with NRS21. Kind of data set: Time-kill assay. The data set is classed as cell-based, Staphylococcus aureus. To be noted: for antibacterial activity as single-drug treatment: FIG. 3, 24 h, OXA 32 mg·L^−1, 4 8 mg·L^−1. The method, then: (§1) Time-kill assay. MRSA strains (NRS21, NRS70, NRS382, NRS404, HFH 29568, and HFH 30495) were grown overnight on tryptic soy agar plate. Bacteria were diluted in Muller-Hinton broth containing 2% NaCl to […] CFU·mL^−1. […] For MEM and CPT, cation-adjusted Muller-Hinton broth without 2% NaCl was used. Aliquots were taken at 0, 3, 6, 9, 12, and 24 h and were diluted serially for bacterial counts. The assay was done in triplicate.

The test system of data set [1] is active-site serine penicillin-binding proteins. Description: Inhibition of penicillin-binding proteins.
For a further data set, the system named is HepG2 (liver) cells. Kind of data set: XTT cytotoxicity assay. The data set is classed as cell-based. To be noted: HepG2 cells. How it is done: (§2) We evaluated additionally the in vitro cytotoxicity of compound 4 using the XTT assay with HepG2 (liver) cells. Cell viability was 100% at 64 mg·L^−1.
(§3) XTT assay. Compound 4 was evaluated in triplicate in the XTT assay (XTT cell proliferation assay, Canvax, Spain) with HepG2 cells, as described previously (Eur. J. Med. Chem. 253, 115329 (2023)). GraphPad Prism 5 (San Diego, CA) was used to calculate IC50 values.
A general note: Tetrazolium assays rely on reduction of a dye to a coloured formazan, in cell work by metabolically active cells.

The nature of another data set: XTT cytotoxicity assay. In kind it is cell-based. To be noted: human, hepg2 cells; HepG2; at 64 mg·L^−1; read-out: Cell viability. How it is done:
as §2, §3

The test system of data set [2] is strain FPR3757 (a USA300 strain). Kind of data set: Checkerboard assay. In kind it is cell-based, Staphylococcus aureus. To be noted: 24-h incubation. The method, then:
Synergy with β-Lactams and Time-Kill Assays. […] In this assay, the antibiotics are compared individually and in combination. The fractional inhibitory concentration (FIC) index is calculated. Synergy is defined as an FIC value ≤0.5, indifference as FIC >0.5 to ≤4, and antagonism as FIC >4.
Checkerboard assay. […] The final inoculum in each well was 5×10^5 CFU·mL^−1, and the result was read after 24-h incubation at 37° C. The fractional inhibitory concentration (FIC) index was calculated for each combination. An FIC index of ≤0.5 is considered synergistic. The experiment was done in triplicates.

Another data set has as its system FPR3757 (USA300 clone). Description: Time-kill assay. In kind it is cell-based, Staphylococcus aureus. To be noted: for antibacterial activity as single-drug treatment: FIG. 3, 24 h, MEM 2 mg·L^−1, 4 8 mg·L^−1.
In a further data set the test system is MRSA NRS21. Description: Neutropenic thigh infection model. In kind it is in vivo, mice. To be noted: single agent (4 20 mg·kg^−1 or OXA 40 mg·kg^−1 sc at 1, 9, 17 h), 24 h. The method, then: (§4) The neutropenic thigh infection model in mice is commonly used to test efficacy of antibacterial agents. It is a highly standardized and reproducible assay that evaluates attenuation of bacterial load (and not animal survival) as the endpoint. All current clinical antibiotics are evaluated in this model. The direct injection of bacteria into the thighs of mice mimics a human soft-tissue infection. Prior to infection, mice are made neutropenic by injection of cyclophosphamide to cause the temporary depletion of neutrophils, dampening the immune response and making mice more susceptible to infection. […] The potentiation of activity of β-lactam antibiotics by compound 4 observed in vitro, translates to in vivo activity.
(§5) Animals. Outbred 8-week-old female ICR mice for PK and neutropenic thigh infection studies were purchased from Envigo, Indianapolis, IN. The average weight of the mice for the PK study was 30 g (range 26.1 to 33.1 g); mice in the neutropenic thigh infection weights ranged from 24.2 to 37.7 g and were on average 29 g at the initiation of the study. Mice were housed in polycarbonate shoebox cages (for the PK study) or in disposable cages (for the infection studies) with ¼-inch corncob (The Andersons Inc., Maumee, OH) and Alpha-Dri (Shepherd Specialty Papers, Inc., Richland, MI) bedding with a 12-h light/dark cycle at 72° F. The animals were given food (Teklad 2918 irradiated extruded rodent diet) and water ad libitum. The food and water were autoclaved for the infection studies. All procedures were performed in accordance with and approved by the University of Notre Dame Institutional Animal Care and Use Committee.
(§6) Neutropenic thigh infection studies. Mice (n=5 per group, total of 155 mice) were made neutropenic by injection of cyclophosphamide (Sigma-Aldrich, St. Louis, MO) intraperitoneally at 200 mg·kg^−1 (100 μL of a 60 mg·mL^−1 solution) on days −4 and −1. MRSA NRS21 and FPR3757 were grown in Tryptic Soy Agar and diluted to a final concentration of 10^6 CFU·mL^−1 in Brain-heart Infusion. On day 0, 100 μL of bacterial inoculum was injected intramuscularly into each of the right and left thighs. […] MEM was given intraperitoneally at 50 or 100 mg·kg^−1. […] MEM was given intraperitoneally at 50 or 100 mg·kg^−1 at 1 h, 5 h, 9 h, 13 h, 17 h, and 21 h after infection. […] MEM was prepared in 10% DMSO/20% Tween80/70% saline (0.9% NaCl in sterilized water). A vehicle group was included. At 24 h after infection, the mice were euthanized. Both thighs were dissected aseptically, weighed, and homogenized with two volumes of 1×PBS in a Bullet blender (Next Advance, Inc., Averill Park, NY) at 4° C., followed by centrifugation. […] The number of colonies were counted. […]

For a further data set, the system named is MRSA FPR3757. Description: Neutropenic thigh infection model. To be noted: MEM 50 mg·kg^−1 ip, 4 20 mg·kg^−1 sc, thighs at 24 h. The data set is classed as in vivo, mice. How it is done: as §4, §5, §6
A further data set has as its system HFH29568. Kind of data set: Time-kill assay. In kind it is cell-based, Staphylococcus aureus. How it is done:
as §1

One may read the viability as the share of living cells, or the viability signal relative to a control. In the case of `N#Cc1ccc2nc(SCB(O)O)n(Cc3ccc(C(F)(F)F)cc3C(F)(F)F)c2c1` [Compound 4, (((1-(2,4-bis(trifluoro-methyl)benzyl)-6-cyano-1H-benzo[d]imidazol-2-yl)thio)methyl)boronic acid], the “antibacterial activity as single-drug treatment” value (from here on “antibacterial activity”) with NRS21 and in the data set on FPR3757 (USA300 clone) was “did not show antibacterial activity” throughout. Further, the “log increase in bacterial growth at 24 h” value in the data set on NRS21 (compound 4 at 8 mg·L^−1) is 4.1 log. Also, in [1], the “inhibitory properties against penicillin-binding proteins” value is given as “modest inhibitory properties”. Also, the in vitro cytotoxicity result with HepG2 (liver) cells is reported as “not toxic to HepG2 cells”. Further, the viability in the data set “XTT cytotoxicity assay” is 100%. For the same compound, the “FIC index, 4 with MEM” value in data set [2] was found to be 0.13. Besides, the “decrease in bacterial counts compared to vehicle-treated mice” value in the data set on MRSA NRS21 was “did not show a statistically significant decrease in bacterial counts”. The “log reduction compared to vehicle” value in the data set on MRSA FPR3757 is given as 0.06 log.
Take `C[C@@H](O)[C@H]1C(=O)N2C(C(=O)O)=C(S[C@@H]3CN[C@H](C(=O)N(C)C)C3)[C@H](C)[C@H]12` [MEM, meropenem]: the “log10 decrease in bacterial growth” value with HFH29568 (MEM by itself, at 6 h) is reported as 2 log10. For the same compound, the “activity of MEM by itself” value in the data set on HFH29568 (by 24 h) and with FPR3757 (USA300 clone) (throughout the 24-h assay) was “no activity” each time. In addition, the “FIC index, 4 with MEM” value in data set [2] was found to be 0.13. For the same compound, the “antibacterial activity” value with FPR3757 (USA300 clone) is “did not show antibacterial activity”. Besides, the “log reduction compared to vehicle” value with MRSA FPR3757 came out at 1.2 log.
Take `Cc1onc(-c2ccccc2)c1C(=O)N[C@@H]1C(=O)N2[C@@H]1SC(C)(C)[C@@H]2C(=O)O` [OXA, oxacillin]: the “antibacterial activity” value with NRS21 is listed as “did not show antibacterial activity”. In the data set with NRS21 (OXA at 32 mg·L^−1 by itself), the “log increase compared to initial bacterial count at 0 h” value came out at 1.9 log. Further, the “decrease in bacterial counts compared to vehicle-treated mice” value in the data set on MRSA NRS21 is reported as “did not show a statistically significant decrease in bacterial counts”.

The values are drawn from patent publication US20260284011A1, “COMPOUNDS FOR RESTORING SUSCEPTIBILITY TO BETA-LACTAM ANTIBIOTICS” (UNIVERSITY OF NOTRE DAME DU LAC, priority 2023, published 2026).
